Measured values reported in ChEMBL document CHEMBL4138123, “Design, synthesis and biological evaluation of novel pyrazolochalcones as potential modulators of PI3K/Akt/mTOR pathway and inducers of apoptosis in breast cancer cells” (Eur J Med Chem, 2017).

Experiments:
Type in all cases: functional
K562 = assay: Cytotoxicity against human K562 cells assessed as cell growth at 0.1 uM after 48 hrs by sulforhodamine B assay relative to control; settings: K562, 48 h, read-out: Activity
MDA-MB-468 = assay: Cytotoxicity against human MDA-MB-468 cells assessed as cell growth at 10 uM after 48 hrs by sulforhodamine B assay relative to control; settings: MDA-MB-468, 48 h, read-out: Activity
M14 = assay: Cytotoxicity against human M14 cells assessed as cell growth at 0.01 uM after 48 hrs by sulforhodamine B assay relative to control; settings: M14, 48 h, read-out: Activity
ACHN [1] = assay: Cytotoxicity against human ACHN cells assessed as cell growth at 10 uM after 48 hrs by sulforhodamine B assay relative to control; settings: read-out: Activity
ACHN [2] = assay: Cytotoxicity against human ACHN cells assessed as cell growth at 1 uM after 48 hrs by sulforhodamine B assay relative to control; settings: read-out: Activity
NCI-H522 [3] = assay: Cytotoxicity against human NCI-H522 cells assessed as cell growth at 0.01 uM after 48 hrs by sulforhodamine B assay relative to control; settings: NCI-H522, 48 h, read-out: Activity
SW-620 [4] = assay: Cytotoxicity against human SW620 cells assessed as cell growth at 10 uM after 48 hrs by sulforhodamine B assay relative to control; settings: SW-620, 48 h, read-out: Activity
CCRF-CEM = assay: Cytotoxicity against human CCRF-CEM cells assessed as cell growth at 10 uM after 48 hrs by sulforhodamine B assay relative to control; settings: read-out: Activity
SF-268 = assay: Cytotoxicity against human SF268 cells assessed as cell growth at 1 uM after 48 hrs by sulforhodamine B assay relative to control; settings: SF-268, 48 h, read-out: Activity
NCI-H23 [5] = assay: Cytotoxicity against human NCI-H23 cells assessed as cell growth at 0.1 uM after 48 hrs by sulforhodamine B assay relative to control; settings: NCI-H23, 48 h, read-out: Activity
UACC-62 = assay: Cytotoxicity against human UACC62 cells assessed as cell growth at 10 uM after 48 hrs by sulforhodamine B assay relative to control; settings: UACC-62, 48 h, read-out: Activity
HCT-116 = assay: Cytotoxicity against human HCT116 cells assessed as cell growth at 10 uM after 48 hrs by sulforhodamine B assay relative to control; settings: HCT-116, 48 h, read-out: Activity
SK-MEL-5 [6] = assay: Cytotoxicity against human SK-MEL-5 cells assessed as cell growth at 1 uM after 48 hrs by sulforhodamine B assay relative to control; settings: SK-MEL-5, 48 h, read-out: Activity
NCI-H522 [7] = assay: Cytotoxicity against human NCI-H522 cells assessed as cell growth at 1 uM after 48 hrs by sulforhodamine B assay relative to control; settings: NCI-H522, 48 h, read-out: Activity
SNB-19 = assay: Cytotoxicity against human SNB19 cells assessed as growth inhibition after 48 hrs by sulforhodamine B assay; settings: SNB-19, 48 h
RPMI-8226 = assay: Cytotoxicity against human RPMI8226 cells assessed as growth inhibition after 48 hrs by sulforhodamine B assay; settings: RPMI-8226, 48 h
A549 [8] = assay: Cytotoxicity against human A549/ATCC cells assessed as cell growth at 100 uM after 48 hrs by sulforhodamine B assay relative to control; settings: A549, 48 h, read-out: Activity
SK-MEL-5 [9] = assay: Cytotoxicity against human SK-MEL-5 cells assessed as cell growth at 0.1 uM after 48 hrs by sulforhodamine B assay relative to control; settings: SK-MEL-5, 48 h, read-out: Activity
DU-145 = assay: Cytotoxicity against human DU145 cells assessed as cell growth at 0.01 uM after 48 hrs by sulforhodamine B assay relative to control; settings: DU-145, 48 h, read-out: Activity
NCI-H460 = assay: Cytotoxicity against human NCI-H460 cells assessed as cell growth at 100 uM after 48 hrs by sulforhodamine B assay relative to control; settings: NCI-H460, 48 h, read-out: Activity
SK-MEL-5 [10] = assay: Cytotoxicity against human SK-MEL-5 cells assessed as growth inhibition after 48 hrs by sulforhodamine B assay; settings: SK-MEL-5, 48 h
NCI-H23 [11] = assay: Cytotoxicity against human NCI-H23 cells assessed as cell growth at 100 uM after 48 hrs by sulforhodamine B assay relative to control; settings: NCI-H23, 48 h, read-out: Activity
SN12C = assay: Cytotoxicity against human SN12C cells assessed as cell growth at 100 uM after 48 hrs by sulforhodamine B assay relative to control; settings: read-out: Activity
NCI-H23 [12] = assay: Cytotoxicity against human NCI-H23 cells assessed as cell growth at 10 uM after 48 hrs by sulforhodamine B assay relative to control; settings: NCI-H23, 48 h, read-out: Activity
OVCAR-4 = assay: Cytotoxicity against human OVCAR4 cells assessed as cell growth at 1 uM after 48 hrs by sulforhodamine B assay relative to control; settings: OVCAR-4, 48 h, read-out: Activity
SW-620 [13] = assay: Cytotoxicity against human SW620 cells assessed as cell growth at 0.1 uM after 48 hrs by sulforhodamine B assay relative to control; settings: SW-620, 48 h, read-out: Activity
COLO 205 [14] = assay: Cytotoxicity against human COLO205 cells assessed as cell growth at 10 uM after 48 hrs by sulforhodamine B assay relative to control; settings: COLO 205, 48 h, read-out: Activity
PC-3 = assay: Cytotoxicity against human PC3 cells assessed as cell growth at 0.1 uM after 48 hrs by sulforhodamine B assay relative to control; settings: PC-3, 48 h, read-out: Activity
BT-549 = assay: Cytotoxicity against human BT549 cells assessed as cell growth at 0.1 uM after 48 hrs by sulforhodamine B assay relative to control; settings: BT-549, 48 h, read-out: Activity
NCI-H322M = assay: Cytotoxicity against human NCI-H322M cells assessed as cell growth at 0.01 uM after 48 hrs by sulforhodamine B assay relative to control; settings: read-out: Activity
COLO 205 [15] = assay: Cytotoxicity against human COLO205 cells assessed as cell growth at 0.1 uM after 48 hrs by sulforhodamine B assay relative to control; settings: COLO 205, 48 h, read-out: Activity
MDA-MB-231 = assay: Cytotoxicity against human MDA-MB-231 cells assessed as cell growth at 10 uM after 48 hrs by sulforhodamine B assay relative to control; settings: MDA-MB-231, 48 h, read-out: Activity
HCT-15 = assay: Cytotoxicity against human HCT15 cells assessed as cell growth at 10 uM after 48 hrs by sulforhodamine B assay relative to control; settings: HCT-15, 48 h, read-out: Activity
HL-60(TB) = assay: Cytotoxicity against human HL-60(TB) cells assessed as cell growth at 100 uM after 48 hrs by sulforhodamine B assay relative to control; settings: HL-60, 48 h, read-out: Activity
A549 [16] = assay: Cytotoxicity against human A549/ATCC cells assessed as cell growth at 10 uM after 48 hrs by sulforhodamine B assay relative to control; settings: A549, 48 h, read-out: Activity
KM12 = assay: Cytotoxicity against human KM12 cells assessed as cell growth at 0.01 uM after 48 hrs by sulforhodamine B assay relative to control; settings: KM12, 48 h, read-out: Activity

Work on `COc1cc(C(=O)/C=C/c2cc(-c3ccc4c(c3)OCO4)n[nH]2)cc(OC)c1OC` yielded a growth at 0.1 µM (K562) of 84%, a growth at 10 µM (MDA-MB-468) of -57% and a growth at 0.01 µM (M14) of 98%. The growth at 10 µM (ACHN [1]) was -43%, the growth at 1 µM (ACHN [2]) was 99% and the growth at 0.01 µM (NCI-H522 [3]) was 97%. For the same molecule, the growth at 10 µM (SW-620 [4]) was -57%, the growth at 10 µM (CCRF-CEM) was -26% and the growth at 1 µM (SF-268) was 89%. The growth at 0.1 µM (NCI-H23 [5]) was 93%, the growth at 10 µM (UACC-62) was -62% and the growth at 10 µM (HCT-116) was -43%. The growth at 1 µM (SK-MEL-5 [6]) was 89%, the growth at 1 µM (NCI-H522 [7]) was 80% and the GI50 (SNB-19) was 2.34 µM. The TGI (SNB-19) was 11.7 µM, the CC50 (SNB-19; read-out: LC50 (the source's name)) was 35.6 µM and the GI50 (RPMI-8226) was 0.56 µM. For the same molecule, the LC50 (RPMI-8226) was > 100 µM, the TGI (RPMI-8226) was 2.53 µM and the growth at 100 µM (A549 [8]) was -80%. For the same molecule, the growth at 0.1 µM (SK-MEL-5 [9]) was 95%, the growth at 0.01 µM (DU-145) was 102% and the growth at 100 µM (NCI-H460) was -78%. It also gave a GI50 (SK-MEL-5 [10]) of 3.32 µM, an LC50 (concentration killing 50% of cells) (SK-MEL-5 [10]) of 37.7 µM and a TGI (SK-MEL-5 [10]) of 13.3 µM. The growth at 100 µM (NCI-H23 [11]) was -83%, the growth at 100 µM (SN12C) was -96% and the growth at 10 µM (NCI-H23 [12]) was 1%. The growth at 1 µM (OVCAR-4) was 47%, the growth at 0.1 µM (SW-620 [13]) was 95% and the growth at 10 µM (COLO 205 [14]) was -47%. For the same molecule, the growth at 0.1 µM (PC-3) was 95%, the growth at 0.1 µM (BT-549) was 97% and the growth at 0.01 µM (NCI-H322M) was 101%. It also gave a growth at 0.1 µM (COLO 205 [15]) of 98%, a growth at 10 µM (MDA-MB-231) of -22% and a growth at 10 µM (HCT-15) of -16%. For the same molecule, the growth at 100 µM (HL-60(TB)) was -31%, the growth at 10 µM (A549 [16]) was -22% and the growth at 0.01 µM (KM12) was 97%.
